{
  "source": "paper PMC10185516",
  "about": "“Synthesis, in vitro inhibitor screening, structure–activity relationship, and molecular dynamic simulation studies of novel thioquinoline derivatives as potent α-glucosidase inhibitors” (Scientific Reports, 2023)",
  "key": {"[1]": {"biological_target": "α-glucosidase", "details": "cited from earlier work"}, "[2]": {"biological_target": "T1, α-glucosidase enzyme (EC3.2.1.20) (Saccharomyces cerevisiae, UniProt P38158)", "T1 construct": "purchased Sigma-Aldrich", "T1 sequence (P38158 whole entry)": "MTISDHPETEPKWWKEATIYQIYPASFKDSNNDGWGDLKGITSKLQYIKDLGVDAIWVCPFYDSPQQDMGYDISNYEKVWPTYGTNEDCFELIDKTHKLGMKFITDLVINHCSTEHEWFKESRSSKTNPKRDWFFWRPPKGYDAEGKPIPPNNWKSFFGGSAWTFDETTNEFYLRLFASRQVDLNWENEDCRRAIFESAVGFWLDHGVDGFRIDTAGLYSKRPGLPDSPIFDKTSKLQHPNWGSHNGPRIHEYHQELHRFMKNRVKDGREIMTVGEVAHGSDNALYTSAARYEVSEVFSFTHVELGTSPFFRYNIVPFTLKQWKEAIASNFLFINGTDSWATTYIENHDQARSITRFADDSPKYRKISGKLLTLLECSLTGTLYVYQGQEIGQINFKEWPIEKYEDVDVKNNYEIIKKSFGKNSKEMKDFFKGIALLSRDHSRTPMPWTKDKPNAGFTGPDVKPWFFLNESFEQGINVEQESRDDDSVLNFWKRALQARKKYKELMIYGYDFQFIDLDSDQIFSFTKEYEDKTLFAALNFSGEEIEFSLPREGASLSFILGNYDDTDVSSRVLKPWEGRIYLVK", "assay": "biochemical", "format": "biochemical", "protocol": "α-glucosidase enzyme (EC3.2.1.20, Saccharomyces cerevisiae, 20 U/mg) and substrate (p-nitrophenyl glucopyranoside) were purchased from Sigma-Aldrich. α-glucosidase was dissolved in potassium phosphate buffer (50 mM, pH = 6.8) to obtain the initial activity of 1 U/ml. Then, 20 µl of this enzyme solution was added to 135 µl of potassium phosphate buffer and 20 µl of test compound at various concentrations in DMSO. After 10 min incubation at 37 °C, 25 µl of the substrate at a final concentration of 4 mM was added to the mixture and allowed to incubate at 37 °C for 20 min. Then, the change in absorbance was measured at 405 nm spectroscopically. […] The percentage of inhibition for each entry was calculated by using the following formula: \\%Inhibition=Abs control-Abs sample/Abs control×100 IC50 values were obtained from the nonlinear regression curve using the Logit method[15],[29]."}, "[3]": {"biological_target": "T2, α-glucosidase (Saccharomyces cerevisiae, UniProt P38158)", "T2 construct": "purchased Sigma-Aldrich", "T2 sequence (P38158 whole entry)": "as above", "assay": "Enzyme kinetic studies (Lineweaver–Burk plot, secondary plot)", "format": "biochemical", "protocol": "A Lineweaver–Burk plot was generated to identify the type of inhibition and the Michaelis–Menten constant (Km) value was determined from the plot between the reciprocal of the substrate concentration (1/[S]) and reciprocal of enzyme rate (1/V) over various inhibitor concentrations."}, "[4]": {"set-up": "method as in PMID 29980114", "details": "at the tested concentrations; cited from earlier work"}, "[5]": {"details": "previously reported inhibitors, Fig. 1, recent research"}, "[6]": {"details": "previously reported aryl-hydrazide inhibitors, Fig. 1, read-out: IC50"}},
  "note": "Like-named read-outs stand apart in the source and are kept apart here.",
  "data": [
    {"smiles": "O=C(O)c1ccc2ccccc2n1", "note": "[A]", "values": [
      {"measurement": "IC50", "setting": "[1]; [5]", "result": "9.1 ± 2.3", "unit": "µg/mL"}
    ]},
    {"smiles": "O=C(O)c1cnc2ccccc2c1", "note": "[B]", "values": [
      {"measurement": "IC50", "setting": "[1]; [5]", "result": "10.6 ± 1.4", "unit": "µg/mL"}
    ]},
    {"smiles": "O=C(CSc1nc2ccccc2cc1-c1nc2ccccc2[nH]1)Nc1cccc(Cl)c1", "note": "[C]", "values": [
      {"measurement": "IC50", "setting": "[1]; previously reported inhibitor, Fig. 1, read-out: IC50", "result": "3.2 ± 0.3", "unit": "µM"}
    ]},
    {"smiles": "O=C(CSc1nc2ccccc2cc1C=NNC(=O)c1ccccc1)Nc1ccccc1", "note": "[Compound 9a, 2-((3-((2-Benzoylhydrazineylidene)methyl)quinolin-2-yl)thio)-N-phenylacetamide]", "values": [
      {"measurement": "IC50", "setting": "[2]", "result": "88.5 ± 1.3", "unit": "µM"},
      {"measurement": "improvement in inhibitory potency compared to the positive control", "setting": "[2]; versus acarbose", "result": "approximately nine-fold"},
      {"measurement": "melting point", "result": "245 to 247", "unit": "°C"}
    ]},
    {"smiles": "O=C(CSc1nc2ccccc2cc1C=NNC(=O)c1ccccc1)Nc1ccccc1F", "note": "[Compound 9b, 2-((3-((2-Benzoylhydrazineylidene)methyl)quinolin-2-yl)thio)-N-(2-fluorophenyl)acetamide]", "values": [
      {"measurement": "IC50", "setting": "[2]", "result": "109.4 ± 0.2", "unit": "µM"},
      {"measurement": "melting point", "result": "268 to 270", "unit": "°C"}
    ]},
    {"smiles": "O=C(CSc1nc2ccccc2cc1C=NNC(=O)c1ccccc1)Nc1ccc(F)cc1", "note": "[Compound 9c, 2-((3-((2-Benzoylhydrazineylidene)methyl)quinolin-2-yl)thio)-N-(4-fluorophenyl)acetamide]", "values": [
      {"measurement": "IC50", "setting": "[2]", "result": "46 ± 0.5", "unit": "µM"},
      {"measurement": "melting point", "result": "271 to 273", "unit": "°C"}
    ]},
    {"smiles": "O=C(CSc1nc2ccccc2cc1C=NNC(=O)c1ccccc1)Nc1cccc(Cl)c1", "note": "[Compound 9d, 2-((3-((2-Benzoylhydrazineylidene)methyl)quinolin-2-yl)thio)-N-(3-chlorophenyl)acetamide]", "values": [
      {"measurement": "IC50", "setting": "[2]", "result": "193.8 ± 1", "unit": "µM"},
      {"measurement": "melting point", "result": "255 to 257", "unit": "°C"}
    ]},
    {"smiles": "O=C(CSc1nc2ccccc2cc1C=NNC(=O)c1ccccc1)Nc1ccc(Cl)cc1", "note": "[Compound 9e, 2-((3-((2-Benzoylhydrazineylidene)methyl)quinolin-2-yl)thio)-N-(4-chlorophenyl)acetamide]", "values": [
      {"measurement": "IC50", "setting": "[2]", "result": "234.9 ± 0.9", "unit": "µM"},
      {"measurement": "melting point", "result": "262 to 264", "unit": "°C"}
    ]},
    {"smiles": "O=C(CSc1nc2ccccc2cc1C=NNC(=O)c1ccccc1)Nc1ccc(Br)cc1", "note": "[Compound 9f, 2-((3-((2-Benzoylhydrazineylidene)methyl)quinolin-2-yl)thio)-N-(4-bromophenyl)acetamide]", "values": [
      {"measurement": "IC50", "setting": "[2]", "result": "352.4 ± 1.1", "unit": "µM"},
      {"measurement": "melting point", "result": "254 to 257", "unit": "°C"}
    ]},
    {"smiles": "O=C(CSc1nc2ccccc2cc1C=NNC(=O)c1ccccc1)Nc1ccc([N+](=O)[O-])cc1", "note": "[Compound 9g, 2-((3-((2-benzoylhydrazineylidene)methyl)quinolin-2-yl)thio)-N-(4-nitrophenyl)acetamide]", "values": [
      {"measurement": "IC50", "setting": "[2]", "result": "93.7 ± 1.5", "unit": "µM"},
      {"measurement": "melting point", "result": "241 to 243", "unit": "°C"}
    ]},
    {"smiles": "Cc1ccccc1NC(=O)CSc1nc2ccccc2cc1C=NNC(=O)c1ccccc1", "note": "[Compound 9h, 2-((3-((2-Benzoylhydrazineylidene)methyl)quinolin-2-yl)thio)-N-(o-tolyl)acetamide]", "values": [
      {"measurement": "IC50", "setting": "[2]", "result": "141.8 ± 0.6", "unit": "µM"},
      {"measurement": "melting point", "result": "260 to 263", "unit": "°C"}
    ]},
    {"smiles": "Cc1ccc(NC(=O)CSc2nc3ccccc3cc2C=NNC(=O)c2ccccc2)cc1", "note": "[Compound 9i, 2-((3-((2-Benzoylhydrazineylidene)methyl)quinolin-2-yl)thio)-N-(p-tolyl)acetamide]", "values": [
      {"measurement": "IC50", "setting": "[2]", "result": "305 ± 1.1", "unit": "µM"},
      {"measurement": "melting point", "result": "254 to 256", "unit": "°C"}
    ]},
    {"smiles": "COc1ccc(NC(=O)CSc2nc3ccccc3cc2C=NNC(=O)c2ccccc2)cc1", "note": "[Compound 9j, 2-((3-((2-Benzoylhydrazineylidene)methyl)quinolin-2-yl)thio)-N-(4-methoxyphenyl)acetamide]", "values": [
      {"measurement": "IC50", "setting": "[2]", "result": "24.7 ± 0.3", "unit": "µM"},
      {"measurement": "melting point", "result": "241 to 243", "unit": "°C"}
    ]},
    {"smiles": "CCc1ccc(NC(=O)CSc2nc3ccccc3cc2C=NNC(=O)c2ccccc2)cc1", "note": "[Compound 9k, 2-((3-((2-Benzoylhydrazineylidene)methyl)quinolin-2-yl)thio)-N-(4-ethylphenyl)acetamide]", "values": [
      {"measurement": "IC50", "setting": "[2]", "result": "60.4 ± 0.2", "unit": "µM"},
      {"measurement": "melting point", "result": "255 to 257", "unit": "°C"}
    ]},
    {"smiles": "Cc1cccc(NC(=O)CSc2nc3ccccc3cc2C=NNC(=O)c2ccccc2)c1C", "note": "[Compound 9l, 2-((3-((2-Benzoylhydrazineylidene)methyl)quinolin-2-yl)thio)-N-(2,3-dimethylphenyl)acetamide]", "values": [
      {"measurement": "IC50", "setting": "[2]", "result": "37.99 ± 0.2", "unit": "µM"},
      {"measurement": "melting point", "result": "241 to 243", "unit": "°C"}
    ]},
    {"smiles": "Cc1cccc(C)c1NC(=O)CSc1nc2ccccc2cc1/C=N/NC(=O)c1ccccc1", "note": "[Compound 9m, 2-((3-((2-Benzoylhydrazineylidene)methyl)quinolin-2-yl)thio)N(2,6dimethylphenyl)acetamide]", "values": [
      {"measurement": "IC50", "setting": "[2]; α-glucosidase inhibition, mean ± SD, read-out: IC50", "result": "14 ± 0.6", "unit": "µM"},
      {"measurement": "mode of inhibition", "setting": "[3]; Lineweaver–Burk plot, Km increased, Vmax unchanged", "result": "competitive"},
      {"measurement": "Ki", "setting": "[3]; from plot of Km versus inhibitor concentration, read-out: Ki (inhibition constant)", "result": 18, "unit": "µM"}
    ]},
    {"smiles": "O=C(CSc1nc2ccccc2cc1C=NNC(=O)c1ccccc1)Nc1ccc2ccccc2c1", "note": "[Compound 9n, 2-((3-((2-Benzoylhydrazineylidene)methyl)quinolin-2-yl)thio)-N-(naphthalen-2-yl)acetamide]", "values": [
      {"measurement": "IC50", "setting": "[2]", "result": "18.4 ± 0.4", "unit": "µM"},
      {"measurement": "melting point", "result": "263 to 265", "unit": "°C"}
    ]},
    {"smiles": "O=C(CSc1nc2ccccc2cc1C=NNC(=O)c1ccccc1)NCc1ccccc1", "note": "[Compound 9o, 2-((3-((2-Benzoylhydrazineylidene)methyl)quinolin-2-yl)thio)-N-benzylacetamide]", "values": [
      {"measurement": "IC50", "setting": "[2]", "result": "373.8 ± 0.8", "unit": "µM"},
      {"measurement": "melting point", "result": "241 to 243", "unit": "°C"}
    ]},
    {"smiles": "O=C(CSc1nc2ccccc2cc1C=NNC(=O)c1ccccc1)NCc1ccc(F)cc1", "note": "[Compound 9p, 2-((3-((2-Benzoylhydrazineylidene)methyl)quinolin-2-yl)thio)-N-(4-fluorobenzyl)acetamide]", "values": [
      {"measurement": "IC50", "setting": "[2]", "result": "78 ± 2.4", "unit": "µM"},
      {"measurement": "melting point", "result": "269 to 271", "unit": "°C"}
    ]},
    {"smiles": "COc1ccc2nc3cc(Cl)ccc3c(SCC(=O)Nc3ccc(C)cc3)c2c1", "note": "[D]", "values": [
      {"measurement": "toxicity", "setting": "[4]", "result": "no toxicity"},
      {"measurement": "IC50", "setting": "[1]; previously reported inhibitor and its positive control, read-out: IC50", "result": "80 ± 2", "unit": "µM"}
    ]},
    {"smiles": "O=C(N/N=C/c1ccc(Cl)cc1)c1ccc(-c2nc3ccccc3s2)cc1", "note": "[E]", "values": [
      {"measurement": "IC50", "setting": "[1]; [6]", "result": "83.8 ± 0.89", "unit": "µM"}
    ]},
    {"smiles": "O=C(N/N=C/c1cccc(F)c1)c1ccc2nc(-c3ccccc3)c(-c3ccccc3)nc2c1", "note": "[F]", "values": [
      {"measurement": "IC50", "setting": "[1]; [6]", "result": "111 ± 6", "unit": "µM"}
    ]}
  ]
}
